Source: patent publication US9221791B2, “Metalloenzyme inhibitor compounds” (Viamet Pharmaceuticals, Inc., priority 2011, dated 2015)
≈ marks a conversion by molar mass, not a printed value.

How the values were obtained:
[1] = system: Puccinia recondita tritici = Puccinia triticina; assay: Fungicidal activity vs. leaf rust on wheat plants; type: in vivo; conditions: wheat (variety Yuma) sprayed at 50 ppm, inoculated on the following day, evaluated 7-9 days later; read-out: Puccinia Rating (% Disease Control @ 50 ppm)
From the text: D. Evaluation of Fungicidal Activity Vs. Leaf Rust (Causal Agent Puccinia recondita tritici=Puccinia triticina; Bayer Code PUCCRT). […] Each pot contained 3-8 seedlings. These plants were sprayed until wet with the formulated test compounds. The compounds were formulated at 50 ppm in 10 vol. % acetone plus 90 vol. % Triton X water (deionized water 99.99 wt %+0.01 wt % Triton X100), giving a “formulated test compound.” Formulated test compounds were applied to plants using a turn table sprayer fitted with two opposing air atomization nozzles which delivered approximately 1500 L/ha of spray volume. On the following day, the leaves were inoculated with an aqueous spore suspension of Puccinia recondita tritici and the plants were kept in high humidity overnight to permit spores to germinate and infect the leaf. The plants were then transferred to a greenhouse until disease developed on untreated control plants. Disease severity was evaluated 7-9 days later, depending on the speed of disease development. In each case of Table 3, the Puccinia rating scale is as follows: […]

C. albicans = assay: Minimum Inhibitory Concentration (MIC) (C. albicans), CLSI M27-A2; type: cell-based; conditions: Candida albicans; approximately 48 h at 35±1° C.; about 50% growth reduction
Description: A. Minimum Inhibitory Concentration (MIC) (C. albicans) Compounds of the present disclosure were assessed for their ability to inhibit the growth of common strains of fungus, C. albicans using a standardized procedure (CLSI M27-A2). Stock solutions of the test compounds and standards were prepared in DMSO at 1,600 μg/mL (C. albicans). Eleven, serial, one-half dilutions of compounds were prepared in 96-well plates in RPMI+MOPS. The assay concentration ranges were 8-0.001 μg/mL (C. albicans). Cell suspensions of C. albicans were prepared and added to each well at concentrations of approximately 3.7×10^3 colony-forming-units per milliliter (cfu/mL). All testing was in duplicate. The inoculated plates were incubated for approximately 48 h at 35±1° C. At the completion of incubation the wells of each plate were evaluated visually for the presence of fungal growth. […] For QC purposes C. krusei isolate ATCC 6258 (4.0×10^3 cfu/mL) was included in the VOR assay.

[2] = system: Septoria tritici (ATCC 26517); assay: Minimum Inhibitory Concentration (MIC) (Septoria tritici), CLSI-based microdilution; type: cell-based; conditions: Zymoseptoria tritici, ATCC26517, 168 h, S. tritici ATCC 26517; 22° C. for seven days; 50% reduction in growth; read-out: Septoria Rating (MIC)
Method in brief: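 S. tritici (ATCC 26517) tested by CLSI-style broth microdilution for filamentous fungi in RPMI-1640/MOPS, 2-fold series 16–0.016 μg/mL (11 concentrations, 2% DMSO before inoculum), duplicate rows. Inoculum ~5×10^4 cfu/mL; plates incubated 7 days at 22 °C in the dark, static; growth scored on a rating scale.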

Compound	MIC (C. albicans)	MIC [2]	pest or weed control at 50 ppm [1]
OC(Cn1cnnn1)(c1ccc(F)cc1F)C(F)(F)c1ccc(-c2ccc(Cl)nc2)cn1 (stereo not shown) [Compound 30, 1-(6′-Chloro-[3,3′-bipyridin]-6-yl)-2-(2,4-difluorophenyl)-1,1-difluoro-3-(1H-tetrazol-1-yl)propan-2-ol]	0.062 µg/mL (≈ 0.133 µM)	–	80 to 100%
OC(Cn1cnnn1)(c1ccc(F)cc1F)C(F)(F)c1ccc(/C=C/COCC(F)(F)F)cn1 (stereo not shown) [Compound 6, (E)-2-(2,4-Difluorophenyl)-1,1-difluoro-3-(1H-tetrazol-1-yl)-1-(5-(3-(2,2,2-trifluoroethoxy)prop-1-en-1-yl)pyridin-2-yl)propan-2-ol]	≤ 0.016 µg/mL	≤ 0.5 µg/mL	< 40%
CCOC(=O)/C=C/c1ccc(C(F)(F)C(O)(Cn2cnnn2)c2ccc(F)cc2F)nc1 (stereo not shown) [Compound 4, (E)-Ethyl 3-(6-(2-(2,4-difluorophenyl)-1,1-difluoro-2-hydroxy-3-(1H-tetrazol-1-yl)propyl)pyridin-3-yl)acrylate]	≤ 0.016 µg/mL	≤ 0.5 µg/mL	–
CCOCCCc1ccc(C(F)(F)C(O)(Cn2cnnn2)c2ccc(F)cc2F)nc1 (stereo not shown) [Compound 53, 2-(2,4-Difluorophenyl)-1-(5-(3-ethoxypropyl)pyridin-2-yl)-1,1-difluoro-3-(1H-tetrazol-1-yl)propan-2-ol]	–	≤ 0.5 µg/mL	80 to 100%
Cc1ccc(C(F)(F)C(O)(Cn2cnnn2)c2ccc(F)cc2F)nc1 (stereo not shown) [Compound 25, 2-(2,4-Difluorophenyl)-1,1-difluoro-1-(5-methylpyridin-2-yl)-3-(1H-tetrazol-1-yl)propan-2-ol]	–	1.5 µg/mL (≈ 4.08 µM)	80 to 100%
OC(Cn1cnnn1)(c1ccc(F)cc1F)C(F)(F)c1ccc(-c2nccs2)cn1 (stereo not shown) [Compound 38, 2-(2,4-Difluorophenyl)-1,1-difluoro-3-(1H-tetrazol-1-yl)-1-(5-(thiazol-2-yl)pyridin-2-yl)propan-2-ol]	–	≤ 0.5 µg/mL	80 to 100%
COc1ccc(-c2ccc(C(F)(F)C(O)(Cn3cnnn3)c3ccc(F)cc3F)nc2)s1 (stereo not shown) [Compound 32, 2-(2,4-Difluorophenyl)-1,1-difluoro-1-(5-(5-methoxythiophen-2-yl)pyridin-2-yl)-3-(1H-tetrazol-1-yl)propan-2-ol]	–	≤ 0.5 µg/mL	40 to 59%
OC(Cn1cnnn1)(c1ccc(F)cc1F)C(F)(F)c1ccc(CC2CC2)cn1 (stereo not shown) [Compound 59, 1-(5-(Cyclopropylmethyl)pyridin-2-yl)-2-(2,4-difluorophenyl)-1,1-difluoro-3-(1H-tetrazol-1-yl)propan-2-ol]	–	≤ 0.5 µg/mL	80 to 100%
O=C(c1ccc(Cl)cc1)c1ccc(C(F)(F)C(O)(Cn2cnnn2)c2ccc(F)cc2F)nc1 (stereo not shown) [Compound 67, (4-Chlorophenyl)(6-(2-(2,4-difluorophenyl)-1,1-difluoro-2-hydroxy-3-(1H-tetrazol-1-yl)propyl)pyridin-3-yl)methanone]	–	≤ 0.5 µg/mL	80 to 100%
CC(C)OC/C=C/c1ccc(C(F)(F)C(O)(Cn2cnnn2)c2ccc(F)cc2F)nc1 (stereo not shown) [Compound 54, (E)-2-(2,4-Difluorophenyl)-1,1-difluoro-1-(5-(3-isopropoxyprop-1-en-1-yl)pyridin-2-yl)-3-(1H-tetrazol-1-yl)propan-2-ol]	–	1.5 µg/mL (≈ 3.32 µM)	< 40%
OC(Cn1cnnn1)(c1ccc(Cl)cc1F)C(F)(F)c1ccc(Br)cn1 (stereo not shown) [Compound 22, 1-(5-Bromopyridin-2-yl)-2-(4-chloro-2-fluorophenyl)-1,1-difluoro-3-(1H-tetrazol-1-yl)propan-2-ol]	–	≤ 0.5 µg/mL	80 to 100%
CCOC/C=C\c1ccc(C(F)(F)C(O)(Cn2cnnn2)c2ccc(F)cc2F)nc1 (stereo not shown) [Compound 52, (Z)-2-(2,4-Difluorophenyl)-1-(5-(3-ethoxyprop-1-en-1-yl)pyridin-2-yl)-1,1-difluoro-3-(1H-tetrazol-1-yl)propan-2-ol]	–	≤ 0.5 µg/mL	< 40%
OC(Cn1cnnn1)(c1ccc(Cl)cc1F)C(F)(F)c1ccc(C2CC2)cn1 (stereo not shown) [Compound 40, 2-(4-Chloro-2-fluorophenyl)-1-(5-cyclopropylpyridin-2-yl)-1,1-difluoro-3-(1H-tetrazol-1-yl)propan-2-ol]	–	≤ 0.5 µg/mL	80 to 100%
OC(Cn1cnnn1)(c1ccc(Cl)cc1F)C(F)(F)c1ccc(Cl)cn1 (stereo not shown) [Compound 26, 2-(4-Chloro-2-fluorophenyl)-1-(5-chloropyridin-2-yl)-1,1-difluoro-3-(1H-tetrazol-1-yl)propan-2-ol]	–	≤ 0.5 µg/mL	80 to 100%

More lines, main results first:

MIC (C. albicans)	MIC [2]	Compound	pest or weed control at 50 ppm [1]
–	≤ 0.5 µg/mL	OC(Cn1cnnn1)(c1ccc(F)cc1F)C(F)(F)c1ccc(Cc2ccccc2)cn1 (stereo not shown) [Compound 75, 1-(5-Benzylpyridin-2-yl)-2-(2,4-difluorophenyl)-1,1-difluoro-3-(1H-tetrazol-1-yl)propan-2-ol]	80 to 100%
–	≤ 0.5 µg/mL	OC(Cn1cnnn1)(c1ccc(F)cc1F)C(F)(F)c1ccc(COC(F)F)cn1 (stereo not shown) [Compound 92, 1-(5-((difluoromethoxy)methyl)pyridin-2-yl)-2-(2,4-difluorophenyl)-1,1-difluoro-3-(1H-tetrazol-1-yl)propan-2-ol]	80 to 100%
–	≤ 0.5 µg/mL	OC(Cn1cnnn1)(c1ccc(F)cc1F)C(F)(F)c1ccc(Cc2ccc(Cl)cc2)cn1 (stereo not shown) [Compound 77, 1-(5-(4-Chlorobenzyl)pyridin-2-yl)-2-(2,4-difluorophenyl)-1,1-difluoro-3-(1H-tetrazol-1-yl)propan-2-ol]	80 to 100%
–	≤ 0.5 µg/mL	OC(Cn1cnnn1)(c1ccc(F)cc1F)C(F)(F)c1ccc(Cc2ccc(OC(F)(F)F)cc2)cn1 (stereo not shown) [Compound 76, 2-(2,4-Difluorophenyl)-1,1-difluoro-3-(1H-tetrazol-1-yl)-1-(5-(4-(trifluoromethoxy)benzyl)pyridin-2-yl)propan-2-ol]	80 to 100%
–	1.5 µg/mL (≈ 2.89 µM)	N#Cc1ccc(SCc2ccc(C(F)(F)C(O)(Cn3cnnn3)c3ccc(F)cc3F)nc2)c(F)c1 (stereo not shown) [Compound 90, 4-(((6-(2-(2,4-difluorophenyl)-1,1-difluoro-2-hydroxy-3-(1H-tetrazol-1-yl)propyl)pyridin-3-yl)methyl)thio)-3-fluorobenzonitrile]	40 to 59%
–	≤ 0.5 µg/mL	O=C(c1ccc(C(F)(F)C(O)(Cn2cnnn2)c2ccc(F)cc2F)nc1)c1ccc(Cl)c(F)c1 (stereo not shown) [Compound 71, (4-Chloro-3-fluorophenyl)(6-(2-(2,4-difluorophenyl)-1,1-difluoro-2-hydroxy-3-(1H-tetrazol-1-yl)propyl)pyridin-3-yl)methanone]	80 to 100%
–	≤ 0.5 µg/mL	O=C(c1ccc(F)cc1)c1ccc(C(F)(F)C(O)(Cn2cnnn2)c2ccc(F)cc2F)nc1 (stereo not shown) [Compound 69, (6-(2-(2,4-Difluorophenyl)-1,1-difluoro-2-hydroxy-3-(1H-tetrazol-1-yl)propyl)pyridin-3-yl)(4-fluorophenyl)methanone]	80 to 100%
